From publication PMC7549094 (Journal of Medicinal Chemistry, 2020)

Tests used:
hr V1a = hr V1a (Homo sapiens, UniProt P37288); test: receptor profile (Table S4); assay type: binding
hr H1 = hr H1 (Homo sapiens, UniProt P35367); test: receptor profile (Table S4); assay type: binding
hr PR antag = target: T1, hr PR antag (Homo sapiens, UniProt P06401); test: receptor profile (Table S4); assay type: biochemical
T1 sequence (P06401 1-933): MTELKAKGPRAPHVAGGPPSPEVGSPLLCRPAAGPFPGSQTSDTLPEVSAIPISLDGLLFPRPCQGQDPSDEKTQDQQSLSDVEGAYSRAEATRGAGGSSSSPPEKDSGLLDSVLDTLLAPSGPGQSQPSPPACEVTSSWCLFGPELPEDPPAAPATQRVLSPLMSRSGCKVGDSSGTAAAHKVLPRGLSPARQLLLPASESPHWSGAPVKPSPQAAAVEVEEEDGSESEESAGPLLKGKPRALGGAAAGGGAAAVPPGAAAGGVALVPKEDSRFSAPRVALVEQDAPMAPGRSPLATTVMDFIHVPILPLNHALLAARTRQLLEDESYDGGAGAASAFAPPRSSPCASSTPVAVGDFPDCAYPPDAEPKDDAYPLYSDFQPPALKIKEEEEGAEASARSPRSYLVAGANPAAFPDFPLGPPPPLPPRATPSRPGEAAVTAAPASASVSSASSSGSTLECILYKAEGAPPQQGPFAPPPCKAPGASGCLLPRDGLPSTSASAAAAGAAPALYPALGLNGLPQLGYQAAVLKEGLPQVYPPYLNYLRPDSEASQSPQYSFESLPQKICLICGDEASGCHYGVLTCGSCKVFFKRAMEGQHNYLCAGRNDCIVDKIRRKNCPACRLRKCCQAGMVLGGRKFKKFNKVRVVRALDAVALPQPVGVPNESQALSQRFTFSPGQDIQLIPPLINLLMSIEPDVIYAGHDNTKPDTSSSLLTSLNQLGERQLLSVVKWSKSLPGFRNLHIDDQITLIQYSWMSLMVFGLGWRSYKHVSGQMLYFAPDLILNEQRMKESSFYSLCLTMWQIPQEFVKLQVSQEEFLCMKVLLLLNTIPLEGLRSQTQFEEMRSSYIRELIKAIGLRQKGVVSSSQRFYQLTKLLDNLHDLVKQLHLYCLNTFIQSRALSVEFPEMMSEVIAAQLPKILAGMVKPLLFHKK

[1] = metabolite profile in mouse hepatocytes; assay type: in vitro ADME; conditions: 10 μM of 1 for 4 h, UV 250 nm, normalized to largest peak
hr 5-HT1A ag = target: T2, hr 5-HT1A ag (Homo sapiens, UniProt P08908); test: receptor profile (Table S4); assay type: biochemical
T2 sequence (P08908 1-422): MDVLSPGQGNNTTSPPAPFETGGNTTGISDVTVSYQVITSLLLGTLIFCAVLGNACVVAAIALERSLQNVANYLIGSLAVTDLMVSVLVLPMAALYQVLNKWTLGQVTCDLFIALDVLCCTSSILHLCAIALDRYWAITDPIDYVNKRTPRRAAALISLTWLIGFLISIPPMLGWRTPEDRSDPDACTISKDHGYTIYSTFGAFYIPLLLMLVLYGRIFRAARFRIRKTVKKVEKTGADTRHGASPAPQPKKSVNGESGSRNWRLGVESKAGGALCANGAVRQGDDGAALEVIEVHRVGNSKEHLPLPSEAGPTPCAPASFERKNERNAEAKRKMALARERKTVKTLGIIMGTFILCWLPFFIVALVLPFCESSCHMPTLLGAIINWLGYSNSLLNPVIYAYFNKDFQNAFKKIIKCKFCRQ

hr NET = hr NET (Homo sapiens, UniProt P23975); test: receptor profile (Table S4); assay type: binding
BSEP = BSEP (Homo sapiens, UniProt O95342); test: receptor profile (Table S4), second BSEP line; conditions: human
hr BSEP = hr BSEP (Homo sapiens, UniProt O95342); test: receptor profile (Table S4), second BSEP line; conditions: hr BSEP, second line
hr GR ag = target: T3, hr GR ag (Homo sapiens, UniProt P04150); test: receptor profile (Table S4); assay type: biochemical
T3 sequence (P04150 1-777): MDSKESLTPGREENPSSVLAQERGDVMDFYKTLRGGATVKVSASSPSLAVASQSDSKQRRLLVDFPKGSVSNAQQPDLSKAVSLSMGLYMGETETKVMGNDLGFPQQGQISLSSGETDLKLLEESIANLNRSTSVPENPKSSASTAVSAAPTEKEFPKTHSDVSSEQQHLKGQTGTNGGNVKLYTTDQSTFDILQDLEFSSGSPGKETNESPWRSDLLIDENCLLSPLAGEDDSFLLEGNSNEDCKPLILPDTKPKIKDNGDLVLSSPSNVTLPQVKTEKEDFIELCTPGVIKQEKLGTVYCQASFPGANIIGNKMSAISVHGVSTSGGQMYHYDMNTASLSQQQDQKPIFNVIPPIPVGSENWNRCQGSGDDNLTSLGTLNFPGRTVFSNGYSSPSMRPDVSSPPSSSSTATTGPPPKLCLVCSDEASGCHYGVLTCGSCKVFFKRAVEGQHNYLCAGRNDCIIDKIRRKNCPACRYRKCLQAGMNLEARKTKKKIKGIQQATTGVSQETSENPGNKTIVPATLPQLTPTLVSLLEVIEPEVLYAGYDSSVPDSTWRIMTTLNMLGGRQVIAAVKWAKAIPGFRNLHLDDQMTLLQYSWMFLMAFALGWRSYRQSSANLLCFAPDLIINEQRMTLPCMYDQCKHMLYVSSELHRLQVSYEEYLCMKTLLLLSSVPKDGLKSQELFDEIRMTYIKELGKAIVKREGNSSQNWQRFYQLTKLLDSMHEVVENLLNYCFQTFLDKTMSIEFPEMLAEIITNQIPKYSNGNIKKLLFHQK

hr Beta1 = hr Beta1 (Homo sapiens, UniProt P08588); test: receptor profile (Table S4); assay type: binding
hr Beta1, sequence (P08588 whole entry): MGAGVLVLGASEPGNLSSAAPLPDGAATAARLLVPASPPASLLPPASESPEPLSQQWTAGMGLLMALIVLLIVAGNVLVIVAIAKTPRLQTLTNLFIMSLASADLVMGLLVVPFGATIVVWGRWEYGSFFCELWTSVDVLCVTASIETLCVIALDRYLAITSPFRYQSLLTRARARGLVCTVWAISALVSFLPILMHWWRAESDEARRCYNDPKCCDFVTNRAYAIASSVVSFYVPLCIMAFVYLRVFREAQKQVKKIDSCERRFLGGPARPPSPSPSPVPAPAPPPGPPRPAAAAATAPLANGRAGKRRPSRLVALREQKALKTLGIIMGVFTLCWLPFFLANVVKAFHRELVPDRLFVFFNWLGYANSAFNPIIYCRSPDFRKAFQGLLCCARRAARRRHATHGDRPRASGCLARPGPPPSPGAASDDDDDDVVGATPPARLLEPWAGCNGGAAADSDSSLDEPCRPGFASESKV

hr NET, sequence (P23975 whole entry): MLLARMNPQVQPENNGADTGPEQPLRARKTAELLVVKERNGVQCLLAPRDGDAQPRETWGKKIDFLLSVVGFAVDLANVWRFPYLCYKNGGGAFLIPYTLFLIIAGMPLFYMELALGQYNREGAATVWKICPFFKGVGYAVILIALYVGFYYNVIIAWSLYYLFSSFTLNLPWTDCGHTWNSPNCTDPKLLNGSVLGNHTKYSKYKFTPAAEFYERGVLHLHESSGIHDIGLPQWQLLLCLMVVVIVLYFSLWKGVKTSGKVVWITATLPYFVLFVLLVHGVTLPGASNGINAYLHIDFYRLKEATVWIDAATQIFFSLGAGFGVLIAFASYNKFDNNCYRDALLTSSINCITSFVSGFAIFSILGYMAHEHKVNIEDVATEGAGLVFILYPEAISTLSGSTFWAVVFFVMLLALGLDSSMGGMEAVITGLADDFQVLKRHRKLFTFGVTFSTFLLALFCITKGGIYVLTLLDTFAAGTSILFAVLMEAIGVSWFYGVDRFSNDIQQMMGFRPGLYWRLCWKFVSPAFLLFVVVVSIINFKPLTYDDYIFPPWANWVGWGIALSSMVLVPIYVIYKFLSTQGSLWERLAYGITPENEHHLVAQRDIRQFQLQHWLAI
hr H1, sequence (P35367 whole entry): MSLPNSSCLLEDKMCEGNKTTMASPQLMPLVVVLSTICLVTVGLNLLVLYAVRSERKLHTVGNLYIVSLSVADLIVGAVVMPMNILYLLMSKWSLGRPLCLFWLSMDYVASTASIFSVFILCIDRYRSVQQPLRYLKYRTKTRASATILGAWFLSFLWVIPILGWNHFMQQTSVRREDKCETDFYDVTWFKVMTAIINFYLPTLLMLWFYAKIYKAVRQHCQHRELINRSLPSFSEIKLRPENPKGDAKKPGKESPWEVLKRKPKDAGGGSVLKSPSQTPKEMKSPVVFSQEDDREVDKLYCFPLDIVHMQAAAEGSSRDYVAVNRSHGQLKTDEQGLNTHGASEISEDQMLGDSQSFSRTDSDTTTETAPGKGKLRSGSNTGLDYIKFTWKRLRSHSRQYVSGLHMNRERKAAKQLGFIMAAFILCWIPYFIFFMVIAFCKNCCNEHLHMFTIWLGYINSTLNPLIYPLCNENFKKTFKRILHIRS
hr V1a, sequence (P37288 whole entry): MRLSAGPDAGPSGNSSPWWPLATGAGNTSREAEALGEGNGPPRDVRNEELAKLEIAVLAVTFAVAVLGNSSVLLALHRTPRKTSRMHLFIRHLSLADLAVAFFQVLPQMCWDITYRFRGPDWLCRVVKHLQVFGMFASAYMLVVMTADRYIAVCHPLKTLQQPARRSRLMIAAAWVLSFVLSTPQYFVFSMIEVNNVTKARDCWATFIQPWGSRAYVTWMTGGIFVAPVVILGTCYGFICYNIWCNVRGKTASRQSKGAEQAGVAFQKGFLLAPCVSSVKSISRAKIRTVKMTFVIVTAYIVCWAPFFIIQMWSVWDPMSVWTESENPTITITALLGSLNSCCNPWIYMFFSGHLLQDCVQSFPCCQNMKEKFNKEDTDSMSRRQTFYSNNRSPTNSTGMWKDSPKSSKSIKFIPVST
BSEP, sequence (O95342 whole entry): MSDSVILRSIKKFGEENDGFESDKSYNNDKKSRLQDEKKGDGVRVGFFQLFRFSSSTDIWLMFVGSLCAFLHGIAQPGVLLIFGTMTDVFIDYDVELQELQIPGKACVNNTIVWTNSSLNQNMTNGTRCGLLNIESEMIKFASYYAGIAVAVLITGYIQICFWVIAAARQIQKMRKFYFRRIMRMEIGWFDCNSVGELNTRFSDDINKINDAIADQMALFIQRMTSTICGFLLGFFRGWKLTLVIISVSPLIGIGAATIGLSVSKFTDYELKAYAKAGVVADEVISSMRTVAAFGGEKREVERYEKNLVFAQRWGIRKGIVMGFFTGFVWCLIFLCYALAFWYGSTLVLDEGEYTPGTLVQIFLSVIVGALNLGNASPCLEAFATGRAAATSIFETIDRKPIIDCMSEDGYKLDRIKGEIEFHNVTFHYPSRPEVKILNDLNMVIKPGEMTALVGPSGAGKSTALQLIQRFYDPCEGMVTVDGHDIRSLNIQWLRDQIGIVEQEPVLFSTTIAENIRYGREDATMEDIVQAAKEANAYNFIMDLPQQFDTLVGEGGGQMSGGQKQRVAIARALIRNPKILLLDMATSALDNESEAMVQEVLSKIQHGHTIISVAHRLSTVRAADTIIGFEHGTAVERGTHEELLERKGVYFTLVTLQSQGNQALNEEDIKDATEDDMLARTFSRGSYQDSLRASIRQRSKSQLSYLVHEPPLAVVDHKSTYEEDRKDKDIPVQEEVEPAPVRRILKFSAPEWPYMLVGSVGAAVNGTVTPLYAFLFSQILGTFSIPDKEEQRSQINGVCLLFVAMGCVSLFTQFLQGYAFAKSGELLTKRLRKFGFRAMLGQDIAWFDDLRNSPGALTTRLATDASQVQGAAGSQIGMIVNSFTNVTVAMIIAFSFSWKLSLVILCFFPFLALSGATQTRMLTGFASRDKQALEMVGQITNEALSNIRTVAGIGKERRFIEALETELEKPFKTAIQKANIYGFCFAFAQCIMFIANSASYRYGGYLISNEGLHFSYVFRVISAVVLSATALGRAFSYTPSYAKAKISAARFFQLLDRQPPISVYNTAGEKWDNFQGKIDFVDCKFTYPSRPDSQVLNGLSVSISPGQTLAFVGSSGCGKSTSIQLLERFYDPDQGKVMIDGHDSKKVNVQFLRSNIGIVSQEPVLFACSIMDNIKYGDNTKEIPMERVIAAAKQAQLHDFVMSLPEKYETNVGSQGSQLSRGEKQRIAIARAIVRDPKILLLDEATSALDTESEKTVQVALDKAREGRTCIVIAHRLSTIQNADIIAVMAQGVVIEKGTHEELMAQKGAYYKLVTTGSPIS
hr BSEP, sequence (O95342 whole entry): as above

Cc1nc(C)c(C(=O)Nc2ccc(F)c(-c3nc4ncc(-c5ncccc5C)cn4n3)c2)o1 [compound 1, N-(4-Fluoro-3-(6-(3-methylpyridin-2-yl)-[1,2,4]triazolo[1,5-a]pyrimidin-2-yl)phenyl)-2,4-dimethyloxazole-5-carboxamide] showed an EC50/IC50 (hr V1a; hr V1a) of over 30 µM, an inhibition at 10 µM (hr V1a; read-out: % inh/act @ 10 µM) of 11% and an inhibition at 30 µM (hr V1a; read-out: % inh/act @ 30 µM) of 19%. For the same molecule, the EC50/IC50 (hr H1; hr H1) was over 30 µM, the inhibition at 10 µM (hr H1; read-out: % inh/act @ 10 µM) was 10% and the inhibition at 30 µM (hr H1; read-out: % inh/act @ 30 µM) was 24%. The EC50/IC50 (hr PR antag; hr PR antag) was over 30 µM, the inhibition at 10 µM (hr PR antag; read-out: % inh/act @ 10 µM) was -11% and the inhibition at 30 µM (hr PR antag; read-out: % inh/act @ 30 µM) was -5%. For the same molecule, the abundance mouse [1] was “+++ (+++ > 75%)”, the EC50/IC50 (hr 5-HT1A ag; hr 5-HT1A ag) was over 30 µM and the inhibition at 10 µM (hr 5-HT1A ag; read-out: % inh/act @ 10 µM) was 1%. The inhibition at 30 µM (hr 5-HT1A ag; read-out: % inh/act @ 30 µM) was 1%, the EC50/IC50 (hr NET; hr NET) was over 30 µM and the inhibition at 10 µM (hr NET; read-out: % inh/act @ 10 µM) was 19%. For the same molecule, the inhibition at 30 µM (hr NET; read-out: % inh/act @ 30 µM) was 24%, the inhibition at 10 µM (BSEP) was 40% and the inhibition at 30 µM (BSEP) was 56%. For the same molecule, the EC50/IC50 (hr BSEP) was 17 µM, the EC50/IC50 (hr GR ag; hr GR ag) was over 30 µM and the inhibition at 10 µM (hr GR ag; read-out: % inh/act @ 10 µM) was -5%. The inhibition at 30 µM (hr GR ag; read-out: % inh/act @ 30 µM) was -4%, the EC50/IC50 (hr Beta1; hr Beta1) was over 30 µM and the inhibition at 10 µM (hr Beta1; read-out: % inh/act @ 10 µM) was 6%. For the same molecule, the inhibition at 30 µM (hr Beta1; read-out: % inh/act @ 30 µM) was 10%.
